Holding throughout (test): growth of human tumour cells (NCI), 48 h
For experiment [1], the system named is KM12 colon.
The test system of experiment [2] is HL-60(TB) leukemia.
The test system of experiment [3] is LOX IMVI melanoma.
For experiment [4], the system named is IGROV1 ovarian.
The test system of experiment [5] is SW-620 colon.
Experiment [6] deals with SK-OV-3 ovarian.
Experiment [7] concerns ACHN renal.
Experiment [8] deals with HCT-15 colon.
In experiment [9] the test system is MOLT-4 leukemia.
Experiment [10] concerns NCI-H522 lung.

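Cultured in 96-well plates, cells were exposed to test compound for 48 hours across five concentrations. TGI marks complete inhibition of growth.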

As to `CC1CC2=C(S(=O)(=O)c3ccccc3)CC(S(=O)(=O)c3ccccc3)(S(=O)(=O)c3ccccc3)CC21` (stereo unspecified), the TGI in experiment [1], in [2], in [3], in experiment [4], in experiment [5] and in experiment [6] was above 100 µM throughout. In addition, the TGI in experiment [7], in [8] and in experiment [9] was above 100 µM throughout.

For the compound `CC(C)=C[C@H]1CCC2(OCCO2)[C@]1(C)COCc1ccccc1`, the TGI in experiment [1] was above 100 µM; in [3], 31 µM; in experiment [10] it was 62.1 µM; in [5], above 100 µM; in experiment [6] it was above 100 µM; in experiment [7], above 100 µM. Moreover, the values for the TGI in experiment [8] and in experiment [9] were above 100 µM and 32.3 µM, respectively.

As to `CCOC(=O)Cc1nc2cc(F)c(F)cc2[nH]c1=O`, the TGI in experiment [1], in experiment [2], in [3], in experiment [5], in [6] and in [7] was above 100 µM each time. The TGI in experiment [8] and in experiment [9] was above 100 µM throughout.

As to `CN(C(=O)Cc1cccc(N=C=S)c1)[C@H]1CCCC[C@@H]1N1CCCC1`, the TGI in [1] was 32.1 µM; in experiment [3] it was 31.3 µM; in experiment [4] it was 28.1 µM; in experiment [10] it was 27.6 µM; in [5], 36.2 µM; in experiment [6], 69.4 µM. For the same compound, the figures for the TGI in experiment [7], in [8] and in experiment [9] were 27.2 µM, 31.2 µM and 29 µM, respectively.

As for `CC1S/C(=N\N=C2/C(=O)Nc3ccc(Br)cc32)N(C2CCCCC2)C1=O` (stereo unspecified), the TGI in [1] was 20.8 µM; in experiment [2], above 100 µM; in experiment [3], 13.6 µM; in [5], 46.3 µM; in experiment [6], 14 µM; in [7], 3.24 µM. The TGI in [8] was 16 µM; in experiment [9], above 100 µM.

On to `CCOC1=NC(O)c2cccn2-c2sccc21` (stereo unspecified), for which the TGI in [1], in experiment [10], in experiment [5], in experiment [6], in [7] and in experiment [8] was above 100 µM each time. This compound also showed a TGI in experiment [9] above 100 µM.

Consider `O=c1cc(-c2ccc(Oc3ccccc3)cc2)[nH]c2cc3c(cc12)OCO3`, for which the TGI in experiment [2], in [3], in [4], in experiment [5], in experiment [7] and in experiment [8] was above 100 µM in each case. The TGI in [9] is above 100 µM.

With `Clc1ccc(-c2cc3nc4ccccc4nc3o2)cc1`, the TGI in [1], in experiment [2], in [3], in experiment [4], in [5] and in [6] was above 100 µM in each case. Moreover, the TGI in [7], in [8] and in experiment [9] was above 100 µM in each case.

For `CC(C)=CCC(O)[C@](C)(O)[C@H]1[C@H](O)C[C@@]2(C)[C@@H]3CCc4cc(O)c(OC5OC(CO)C(O)C(O)C5O)cc4C3(C)C(=O)C[C@]12C` (stereo partly specified), the TGI in [1], in [4], in experiment [10], in [5], in experiment [6] and in experiment [7] was above 100 µM in each case. The TGI in [8] and in experiment [9] was above 100 µM throughout.

As for `CSc1cc(Cl)c(C)cc1S(=O)(=O)NC(=O)NNc1cccc(C(F)(F)F)n1`, the TGI in experiment [1], in experiment [3], in experiment [4], in experiment [10], in experiment [5] and in experiment [6] was above 100 µM each time. Further, the figures for the TGI in [7], in experiment [8] and in experiment [9] were above 100 µM, above 100 µM and 51.8 µM, respectively.

As to `C[C@@H](c1ccccc1)n1c(N)c(C#N)c2ccc([N+](=O)[O-])cc2c1=O`, the TGI in experiment [1] turned out to be 42.8 µM; in [2], 27.7 µM; in experiment [3] it was 34.9 µM; in experiment [5], 48.3 µM; in [7], 29.5 µM; in [8], 28.2 µM.

On to `COc1ccc(S(=O)(=O)c2ccccc2[N+](=O)[O-])cc1`, for which the TGI in [1], in [2], in [3], in [4], in [5] and in [6] was above 100 µM each time. The TGI in [8] and in experiment [9] was above 100 µM each time.

With `CCOC(=O)c1cn2c(n1)sc1cc(Cl)ccc12`, the TGI in [1], in experiment [3], in experiment [4], in experiment [10], in experiment [5] and in experiment [6] was above 100 µM each time. The TGI in [7], in [8] and in [9] was above 100 µM in each case.

Regarding `CC(C)=C[C@H]1CCC2(OCCO2)[C@]1(C)CO`, the TGI in [1], in [3], in [4], in experiment [10], in experiment [5] and in [6] was above 100 µM throughout. The TGI in [7] and in [8] was above 100 µM in each case.

On to `O=[N+]([O-])c1ccc(S(=O)(=O)n2c3ccc(Br)cc3c3nc4ccccc4nc32)cc1`, for which the TGI in [1], in experiment [3], in experiment [4], in [10], in experiment [5] and in experiment [7] was above 100 µM in each case. The TGI in experiment [8] and in experiment [9] was above 100 µM throughout.

`COc1cc(OC)c2c(C)cc(=O)oc2c1`: the TGI in experiment [1], in [3], in [4], in [5], in experiment [6] and in experiment [7] was above 100 µM each time. For the same compound, the TGI in experiment [8] and in experiment [9] was above 100 µM throughout.

As to `Cc1ccc([N+](=O)[O-])c2c(NCCC[N+](C)(C)[O-])c3ccccc3nc12`, the TGI is above 21.1 µM in experiment [1]; 34.5 µM in [2]; 9.2 µM in experiment [3]; above 23.9 µM in [4]; above 72.6 µM in [5]; above 100 µM in [6]. In addition, the TGI in [7] worked out at 47.7 µM; in [8], 33 µM.

Regarding `COC(=O)C1=CS/C(=C2\S[C@@H]3[C@H](S2)[C@H]2C=C[C@@H]3C2)S1`, the TGI in experiment [1] is above 100 µM; in [2], 57.9 µM; in experiment [3], above 100 µM; in [4], above 100 µM; in experiment [5], above 100 µM; in [6], above 100 µM. The TGI in experiment [8] and in experiment [9] was above 100 µM throughout.

On to `CC(C)OC(=O)/C=C/C(=O)O/C=C/[N+](=O)[O-]`, for which the TGI in experiment [1] was 70.6 µM; in experiment [3] it was 32.9 µM; in experiment [4], 63 µM; in experiment [5], above 100 µM; in experiment [6], above 100 µM; in [7], above 100 µM. Further, the TGI was above 100 µM in [8] and 36.5 µM in [9].

With `N#C/C(=C/NC(N)=S)C(N)=O`, the TGI in experiment [1], in [2], in experiment [3], in [4], in [5] and in [6] was above 100 µM throughout. The TGI in [7] and in experiment [8] was above 100 µM throughout.

Consider `O=C(/C=C/c1ccc2ccccc2c1)NCc1ccc(C(=O)NCCc2ccccc2)cc1`, for which the TGI in [1], in [2], in experiment [3], in experiment [5], in [6] and in [7] was above 100 µM each time. The TGI in [8] and in experiment [9] was above 100 µM in each case.

Take `CC(=O)O[C@H]1C(=O)[C@@]2(C)[C@H]([C@H](OC(=O)c3ccoc3)[C@]3(O)C[C@H](OC(=O)[C@H](O)[C@@H](NC(=O)c4ccccc4)c4ccccc4)C(C)=C1C3(C)C)[C@]1(OC(C)=O)CO[C@@H]1C[C@@H]2O`: the TGI in [1] was above 12.5 µM; in experiment [3] it was above 12.5 µM; in experiment [4] it was above 12.5 µM; in [5] it was above 12.5 µM; in experiment [6] it was above 3.15 µM; in experiment [7], above 12.5 µM. In addition, the TGI was above 12.5 µM in [8] and above 11.6 µM in experiment [9].

With `CCC(=O)Oc1ccc2c(c1)c(=O)c1c(NCCCN(C)C)ccc3nnn2c31`, the TGI in [1] was 18.3 µM; in [3], 2.88 µM; in [4] it was 13.9 µM; in experiment [10], 9.06 µM; in experiment [5], 13.5 µM; in experiment [6], 18.9 µM. In addition, the TGI worked out at 12.7 µM in experiment [7], 15.9 µM in experiment [8] and 5.69 µM in experiment [9].

The record behind these values is PubChem BioAssay (NCI).
